Results published in patent US20040121965A1, “Method of treating resistant tumors” (Wyeth Holdings Corporation, priority 2002, published 2004).
Where two headings read alike, the source gives them in different places.

Tests used:
[1] = test system: CCRF-CEM; assay: Cell survival assay (MTS), CCRF-CEM; format: cell-based; settings: Homo sapiens, 72 h
Protocol: (§1) 2.2. Cell Survival Assay: Standard Pharmacological Test Procedure. […] Compounds are incubated with cells for 3 days.

[2] = test system: MX-1W; assay: Cell survival assay (SRB), MX-1W; format: cell-based; settings: Homo sapiens, MX1W, 72 h, 3 days
Text: Cells lines with previously known mechanisms of resistance. […] Res. 8: 207-218,1996); KB-3-1 (parental derived from an epidermoid carcinoma), KB-8.5, KB-V1 (Akiyama S-I, Fojo A, Hanover J A, Pastan I, Gottesman M M. Isolation and genetic characterization of human KB cell lines resistant to multiple drugs. Somatic Cell Mol. Gen., 11: 117-126,1985; Shen D-W, Cardarelli C, Hwang J, Cornwell M, Richert N, Ishii S, Pastan I, Gottesman MM. […] J. Biol. Chem., 261: 7762-7770, 1986); and HL-60 (parental derived from human leukemia) and HL60/AR (McGrath T., Center M. S. Adriamycin resistance in HL60 cells in the absence of detectable P-glycoprotein. Biochem. Res. Commun., 145:1171-1176,1987); A549 and A549.EpoB40 (He L., Yang C.-P.H., Horwitz S. B. Mutations in p-tubulin map to domains involved in regulation of microtubule stability in epothilone-resistant cell lines. Molecular Cancer Therapeutics. 1: 3-10, 2001). HCT-15 human colon carcinoma and DLD-1 human colon carcinoma are obtained from American Tissue Culture Collection. The MX-1W carcinoma is a Wyeth variant orginally obtained as MX-1 breast carcinoma from the National Cancer Institute. Cell lines selected for resistance to Representative Example 129. KB-3-1 cells are selected for resistance to Example 129 by chronically exposing cells to increasing concentrations of Example 129.
2.2. Cell Survival Assay: Standard Pharmacological Test Procedure. The concentration of candidate inhibitor required to inhibit 50% of cell growth (IC50) is done according to previously reported methods. […] Compounds are serially diluted into media as 2× stocks and 100 μl added to cells in duplicate. Compounds are incubated with cells for 3 days. At the end of the incubation period the sulforhodamine B (SRB) assay, which measures protein content as an assessment of cell survival, is performed as described previously (Skehan P, Storeng R, Scudiero D, Monks A, McMahon J, Vistica D, Warren J T, Bokesch H, Kenney S, Boyd MR. New calorimetric cytotoxicity assay for anticancer-drug screening. J Natl Cancer Inst 1990 Jul 4;82(13):1107-12) with some modification as follows. For KB-3-1 cells with 20% FCS, media is gently decanted and replaced with 200 μl of serum-free media mixed with cold 50% TCA for a final concentration of 10% TCA. The plates are incubated for 1 hr at 4° C., followed by washing 5 times in cold distilled water, then air dried overnight. The fixed cells are stained for 10 min with 80 μl of 0.04% SRB solution prepared in 1% glacial acetic acid. Stain is discarded and plates washed 5 times in 1% glacial acetic acid, then air-dried until completely dry. Stained cell product is dissolved in 150 μl of 10 mM Trizma Base and placed on a shaker for 20 minutes until fully dissolved. Absorbance is read on a Victor V multi-label plate reader (Perkin Elmer, Gaithersburg, Md.).

[3] = test system: HCT-15 tumor; assay: Growth of tumors in nude mice, HCT-15 xenograft; format: in vivo; settings: paclitaxel 60 mg/kg IV, days 1,5,9
Text: 2.4. Growth of Tumors in Nude Mice.

[4] = test system: SKOV3; assay: Cell survival assay (SRB), SKOV3; format: cell-based; settings: Homo sapiens, SK-OV-3, 72 h
Protocol: as §1

[5] = test system: KM20; assay: Cell survival assay (SRB), KM20; format: cell-based; settings: 72 h
Protocol: as §1

[6] = test system: NCI-H838; assay: Cell survival assay (SRB), NCI-H838; format: cell-based; settings: Homo sapiens, 72 h; NCI-H838, NSCLC; 3 days, SRB staining
Protocol: as §1

[7] = test system: SKBR3; assay: Cell survival assay (SRB), SKBR3; format: cell-based; settings: Homo sapiens, SK-BR-3, 72 h; SKBR3, breast; 3 days, SRB staining
Protocol: as §1

[8] = Mitotic arrest and apoptosis; format: cell-based; settings: at 24 hr; followed by apoptosis (48 hr)
Protocol: d) induces mitotic arrest (3-10 nM at 24 hr) followed by apoptosis (48 hr),

[9] = test system: cellular microtubules; assay: Cellular microtubules by immunofluorescence microscopy; format: cell-based
[10] = test system: MDA-MB-435; assay: Cell survival assay (SRB), MDA-MB-435; format: cell-based; settings: Homo sapiens, 72 h; MDA-MB-435, breast; 3 days, SRB staining
Protocol: as §1

[11] = test system: MCF7; assay: Cell survival assay (SRB), MCF7; format: cell-based; settings: Homo sapiens, MCF7, 72 h
Protocol: as §1

[12] = test system: MAP-associated tubulin; assay: Polymerization of MAP-associated tubulin, cell-free spectrophotometric assay; format: biochemical
[13] = test system: CX-1; assay: Cell survival assay (SRB), CX-1; format: cell-based; settings: Homo sapiens, 72 h; CX-1, colon; 3 days, SRB staining
Protocol: as §1

[14] = test system: DU145; assay: Cell survival assay (SRB), DU145; format: cell-based; settings: Homo sapiens, DU-145, 72 h; DU145, prostate; 3 days, SRB staining
Protocol: as §1

Question: Which IC50 ([1]; leukemia, 3 days, MTS assay, read-out: IC50) does the source give for `CC(=O)O[C@H]1C(=O)[C@@]2(C)[C@H]([C@H](OC(=O)c3ccccc3)[C@]3(O)C[C@H](OC(=O)[C@H](O)[C@@H](NC(=O)c4ccccc4)c4ccccc4)C(C)=C1C3(C)C)[C@]1(OC(C)=O)CO[C@@H]1C[C@@H]2O` [paclitaxel, reference compound] here?
Answer: The IC50 was 3.3 ± 1.3 nM.

Question: And the IC50 ([2]; MX-1W, breast, SRB staining, read-out: IC50)?
Answer: Its IC50 is 15.4 ± 2.9 nM.

Question: And the IC50 ([2]; MX-1W, SRB, + 5.0 uM 7-(6,7-dimethoxy-3,4-dihydro-1H-isoquinolin-2-yl)-2(3,4-dimethoxy-phenyl)-2-p-tolysulfanyl-heptanenitrile, read-out: IC50 + 5.0 uM MDR-1 inhibitor)?
Answer: Its IC50 is 8.3 nM.

Question: And the IC50 ([2]; MX-1W, SRB, vehicle control (DMSO), no MDR-1 inhibitor, read-out: IC50)?
Answer: Its IC50 is 138 nM.

Question: And the “% T/C on day 9” value [3]?
Answer: Its value is 114%.

Question: And the “% T/C on day 13” value [3]?
Answer: Its value is 106%.

Question: And the “% T/C on day 17” value [3]?
Answer: The value was 123%.

Question: And the “% T/C on day 21” value [3]?
Answer: Its value is 110%.

Question: What about the IC50 ([4]; SKOV3, ovarian, 3 days, SRB staining, read-out: IC50) of the same compound?
Answer: Its IC50 is 9 nM.

Question: And the IC50 ([5]; KM20, colon, 3 days, SRB staining, read-out: IC50)?
Answer: The IC50 was 8.9 ± 1.9 nM.

Question: And the IC50 [6]?
Answer: The IC50 was 6.3 ± 0.6 nM.

Question: Which results are given for `CN[C@H](C(=O)N[C@H](C(=O)N(C)[C@H](/C=C(\C)C(=O)O)C(C)C)C(C)(C)C)C(C)(C)c1ccccc1` [Example 129, N,β,β-trimethyl-L-phenylalanyl-N^1-[(1S,2E)-3-carboxy-1-isopropylbut-2-enyl]-N^1,3-dimethyl-L-valinamide]?
Answer: IC50 [7]: 2.3 nM; IC50 [1]: 0.2 ± 0.03 nM; IC50 ([2]; MX-1W, breast, SRB staining): 1.8 ± 0.6 nM; IC50 ([2]; MX-1W, SRB, vehicle control (DMSO), no MDR-1 inhibitor): 1.4 nM; IC50 ([2]; read-out: IC50 + 5.0 uM MDR-1 inhibitor, MX-1W, SRB, + 5.0 uM 7-(6,7-dimethoxy-3,4-dihydro-1H-isoquinolin-2-yl)-2(3,4-dimethoxy-phenyl)-2-p-tolysulfanyl-heptanenitrile): 1.3 nM; concentration that induces mitotic arrest [8]: 3 to 10 nM; effect on cellular microtubules [9]: depolymerizes cellular microtubules; IC50 [10]: 0.5 nM; IC50 [4]: 1.7 nM; IC50 [5]: 1.8 ± 0.6 nM; IC50 [11]: 7.3 ± 2.3 nM; polymerization of MAP-associated tubulin [12]: inhibitor of polymerization; IC50 [13]: 2.3 nM; IC50 [14]: 2 nM
